Laboratory results from patent US20250179017A1 (GUANGDONG NEWOPP BIOPHARMACEUTICALS CO., LTD., priority 2022, published 2025).

target: T1, human EP4 (EP4R) (Homo sapiens, UniProt P35408); assay: EP4 antagonist assay (HEK-293 CNG membrane potential cAMP assay / 293T SEAP reporter assay, PGE2-stimulated); type: cell-based; conditions: EP4 antagonist activity; concentration for inhibition of signal compared to DMSO
T1 construct: Cayman Chemical (Human EP4 Reporter Assay Kit)
Description: 1. The HEK-293 CNG (Cyclic Nucleotide Gated) cell line expressing a modified CNG channel that leads to cell membrane depolarization in response to elevated intracellular cAMP levels, which can be measured using a fluorescent membrane potential dye, was engineered to express human EP2 (PTGER2) or EP4 (EP4R). The resulting cell line ACTOne™ PTGER2 or ACTOne™ EP4R as well as the fluorescent membrane potential dye were purchased from eEnzyme (Gaithersburg, MD, US) and used in this assay. Briefly, cells were plated at 1.2×10^4 cells/well in 20 μL DMEM supplemented with 2% Fetal Bovine Serum (FBS, VWR International), 1x Penicillin/Streptomycin (GenClone), 0.2 μg/mL puromycin (InvivoGen) and 50 μg/mL G418 (InvivoGen) on a 384 well plate (Greiner). The next day, cells were dye-loaded with 20 μL/well of 1x Dye-loading solution (eENZYME) following the manufacturer's instruction. After 2 hours of incubation at room temperature (RT) in the dark, a pre-read was made to obtain the background signals using CLARIOstar plate reader (BMG LABTECH, Germany) with the following filter settings: excitation=530/20 nm, emission=590/20 nm. Next, a serial dilution of compound (plus a DMSO control) were added to the plate (5 μL/well) and the reaction was incubated at RT for 15 min before adding 5 μL of PGE2 to every well for a final concentration of 5 nM. All wells were duplicated. The plate was then further incubated at RT for 30 min prior to a final read with the same machine settings. Background-subtracted signals were used to calculate IC50 values.
2. Human EP2 and EP4 Reporter Assay Kits were purchased from Cayman Chemical (Ann Arbor, MI, USA). The assay was performed following the provided User Manual. Briefly, a reverse transfection was performed by seeding 6.0×10^4 of 293T cells (ATCC) to each well of the provided Strip Plate coated with a proprietary transfection complex containing DNA constructs for expressing human EP2 or EP4 and a cAMP response element regulated secreted alkaline phosphatase (SEAP) reporter, in 200 μL DMEM supplemented with 2% FBS and incubated for 20-24 hours at 37° C. with 5% CO2. After the incubation, the culture medium was carefully removed, and the cells were replenished with 150 μL pre-warmed serum-free medium. PGE2 and test compounds were prepared together at 4x the desired final concentration, and 50 μL was added to each assigned well with the final concentration of 13 nM and 2 nM PGE2 for EP2 and EP4 assay, respectively. After 6-8 hours of incubation, 10 μL media from each well was transferred to corresponding well of a new plate, which was then sealed and incubated at 65° C. for 30 min. The plate was then cooled down to RT and 50 μL SEAP substrate was added to each well. Luminescence signal was measured using a CLARIOstar plate reader.
The IC50 value was determined as the concentration for […] inhibition of signal compared to DMSO (A: IC50≤100 nM; B: IC50 between 100 nM and 1,000 nM; C: IC50≥1,000 nM).

T1 sequence (P35408 whole entry): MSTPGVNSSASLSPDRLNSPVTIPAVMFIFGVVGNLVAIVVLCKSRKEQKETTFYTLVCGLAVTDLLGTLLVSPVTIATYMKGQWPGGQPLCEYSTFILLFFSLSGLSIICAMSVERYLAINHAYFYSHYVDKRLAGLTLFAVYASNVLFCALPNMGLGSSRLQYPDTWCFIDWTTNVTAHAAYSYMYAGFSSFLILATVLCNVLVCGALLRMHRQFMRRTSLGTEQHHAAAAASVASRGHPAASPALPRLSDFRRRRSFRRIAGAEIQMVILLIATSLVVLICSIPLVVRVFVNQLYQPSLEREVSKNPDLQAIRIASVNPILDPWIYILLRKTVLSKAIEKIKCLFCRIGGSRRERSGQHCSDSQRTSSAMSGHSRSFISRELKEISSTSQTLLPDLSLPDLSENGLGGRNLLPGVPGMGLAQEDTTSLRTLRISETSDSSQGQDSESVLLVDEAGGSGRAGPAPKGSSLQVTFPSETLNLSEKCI

Row | IC50 | Molecule
1 | ≤ 100 nM | O=C(O)c1ccc(CNC(=O)c2cc(-c3ccc(F)cc3)cc3ccn(Cc4ccc(C(F)(F)F)cc4)c23)cc1 [Example 1, 4-((5-(4-fluorophenyl)-1-(4-(trifluoromethyl)benzyl)-1H-indole-7-carboxamido)methyl)benzoic acid]
2 | ≤ 100 nM | O=C(O)c1ccc(CNC(=O)c2cc(-c3ccccc3)cc3ccn(Cc4ccc(C(F)(F)F)cc4)c23)cc1 [Example 2, 4-((5-phenyl-1-(4-(trifluoromethyl)benzyl)-1H-indole-7-carboxamido)methyl)benzoic acid]

target: T2, human EP2 (PTGER2) (Homo sapiens, UniProt P43116); assay: EP2 antagonist assay (HEK-293 CNG membrane potential cAMP assay / 293T SEAP reporter assay, PGE2-stimulated); type: cell-based; conditions: EP2 antagonist activity; concentration for 50% inhibition of signal compared to DMSO
T2 construct: Cayman Chemical (Human EP2 Reporter Assay Kit)
Method in brief: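 Two formats. In a CRE-SEAP reporter assay, reverse-transfected 293T cells received compound with PGE2 (13 nM final) for 6-8 h, then luminescence was read. In the ACTOne CNG format, HEK-293 cells were preincubated with compound for 15 min at RT, stimulated with 5 nM PGE2 for 30 min, and read by membrane-potential dye fluorescence. IC50 was taken versus DMSO.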

T2 sequence (P43116 whole entry): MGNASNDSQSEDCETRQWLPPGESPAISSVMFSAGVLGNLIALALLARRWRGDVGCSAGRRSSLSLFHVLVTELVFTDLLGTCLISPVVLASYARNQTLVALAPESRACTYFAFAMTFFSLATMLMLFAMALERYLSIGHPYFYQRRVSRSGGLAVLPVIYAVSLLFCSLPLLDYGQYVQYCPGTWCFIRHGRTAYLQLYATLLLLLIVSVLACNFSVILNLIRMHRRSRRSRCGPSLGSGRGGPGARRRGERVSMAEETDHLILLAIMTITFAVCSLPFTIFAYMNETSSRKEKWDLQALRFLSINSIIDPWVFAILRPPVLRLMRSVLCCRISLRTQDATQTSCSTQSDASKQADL

Row | IC50 | Molecule
3 | < 100 nM | O=C(O)c1ccc(CNC(=O)c2cc(-c3ccc(F)cc3)cc3ccn(Cc4ccc(C(F)(F)F)cc4)c23)cc1 [Example 1, 4-((5-(4-fluorophenyl)-1-(4-(trifluoromethyl)benzyl)-1H-indole-7-carboxamido)methyl)benzoic acid]
4 | < 100 nM | O=C(O)c1ccc(CNC(=O)c2cc(-c3ccccc3)cc3ccn(Cc4ccc(C(F)(F)F)cc4)c23)cc1 [Example 2, 4-((5-phenyl-1-(4-(trifluoromethyl)benzyl)-1H-indole-7-carboxamido)methyl)benzoic acid]
5 | < 100 nM | C[C@H](NC(=O)c1cc(-c2ccc(F)c(F)c2)cc2cnn(Cc3ccc(-c4ccccc4)cc3)c12)c1ccc(C(=O)O)cc1 [Example 201, (S)-4-(1-(1-([1,1′-biphenyl]-4-ylmethyl)-5-(3,4-difluorophenyl)-1H-indazole-7-carboxamido)ethyl)benzoic acid]
6 | < 100 nM | C[C@H](NC(=O)c1cc(-c2ccccc2)cc2cnn(Cc3ccc(-c4ccc(F)cc4)cc3)c12)c1ccc(C(=O)O)cc1 [Example 202, (S)-4-(1-(1-((4′-fluoro-[1,1′-biphenyl]-4-yl)methyl)-5-phenyl-1H-indazole-7-carboxamido)ethyl)benzoic acid]
7 | < 100 nM | C[C@H](NC(=O)c1cc(-c2ccc(F)cc2)cc2cnn(Cc3ccc(-c4ccc(F)cc4)cc3)c12)c1ccc(C(=O)O)cc1 [Example 203, (S)-4-(1-(1-((4′-fluoro-[1,1′-biphenyl]-4-yl)methyl)-5-(4-fluorophenyl)-1H-indazole-7-carboxamido)ethyl)benzoic acid]
8 | < 100 nM | C[C@H](NC(=O)c1cc(-c2cc(F)cc(F)c2)cc2cnn(Cc3ccc(-c4ccc(F)cc4)cc3)c12)c1ccc(C(=O)O)cc1 [Example 204, (S)-4-(1-(5-(3,5-difluorophenyl)-1-((4′-fluoro-[1,1′-biphenyl]-4-yl)methyl)-1H-indazole-7-carboxamido)ethyl)benzoic acid]
9 | < 100 nM | C[C@H](NC(=O)c1cc(-c2ccc(F)c(F)c2)cc2cnn(Cc3ccc(-c4ccc(F)cc4)cc3)c12)c1ccc(C(=O)O)cc1 [Example 205, (S)-4-(1-(5-(3,4-difluorophenyl)-1-((4′-fluoro-[1,1′-biphenyl]-4-yl)methyl)-1H-indazole-7-carboxamido)ethyl)benzoic acid]
10 | < 100 nM | N#Cc1cccc(-c2cc(C(=O)NC3(c4ccc(C(=O)O)cc4)CC3)c3c(ccn3Cc3cccc(Cl)c3)c2)c1 [Example 206, 4-(1-(1-(3-chlorobenzyl)-5-(3-cyanophenyl)-1H-indole-7-carboxamido)cyclopropyl)benzoic acid]
11 | < 100 nM | C[C@H](NC(=O)c1cc(-c2ccc(F)c(F)c2)cc2ccn(Cc3ccc(-c4ccccc4)cc3)c12)c1ccc(C(=O)O)cc1 [Example 207, (S)-4-(1-(1-([1,1′-biphenyl]-4-ylmethyl)-5-(3,4-difluorophenyl)-1H-indole-7-carboxamido)ethyl)benzoic acid]
12 | < 100 nM | O=C(O)c1ccc(CNC(=O)c2cc(-c3ccccc3)cc3ccn(Cc4ccc(-c5ccc(F)cc5)cc4)c23)cc1 [Example 208, 4-((1-((4′-fluoro-[1,1′-biphenyl]-4-yl)methyl)-5-phenyl-1H-indole-7-carboxamido)methyl)benzoic acid]
13 | < 100 nM | O=C(O)c1ccc(CNC(=O)c2cc(-c3ccc(F)cc3)cc3ccn(Cc4ccc(-c5ccc(F)cc5)cc4)c23)cc1 [Example 209, 4-((1-((4′-fluoro-[1,1′-biphenyl]-4-yl)methyl)-5-(4-fluorophenyl)-1H-indole-7-carboxamido)methyl)benzoic acid]
14 | < 100 nM | O=C(O)c1ccc(CNC(=O)c2cc(-c3cc(F)cc(F)c3)cc3ccn(Cc4ccc(-c5ccc(F)cc5)cc4)c23)cc1 [Example 210, 4-((5-(3,5-difluorophenyl)-1-((4′-fluoro-[1,1′-biphenyl]-4-yl)methyl)-1H-indole-7-carboxamido)methyl)benzoic acid]
15 | < 100 nM | O=C(O)c1ccc(CNC(=O)c2cc(-c3ccc(F)c(F)c3)cc3ccn(Cc4ccc(-c5ccc(F)cc5)cc4)c23)cc1 [Example 211, 4-((5-(3,4-difluorophenyl)-1-((4′-fluoro-[1,1′-biphenyl]-4-yl)methyl)-1H-indole-7-carboxamido)methyl)benzoic acid]
16 | < 100 nM | C[C@H](NC(=O)c1cc(-c2ccccc2)cc2ccn(Cc3ccc(-c4ccc(F)cc4)cc3)c12)c1ccc(C(=O)O)cc1 [Example 212, (S)-4-(1-(1-((4′-fluoro-[1,1′-biphenyl]-4-yl)methyl)-5-phenyl-1H-indole-7-carboxamido)ethyl)benzoic acid]
17 | < 100 nM | C[C@H](NC(=O)c1cc(-c2ccc(F)cc2)cc2ccn(Cc3ccc(-c4ccc(F)cc4)cc3)c12)c1ccc(C(=O)O)cc1 [Example 213, (S)-4-(1-(1-((4′-fluoro-[1,1′-biphenyl]-4-yl)methyl)-5-(4-fluorophenyl)-1H-indole-7-carboxamido)ethyl)benzoic acid]
18 | < 100 nM | C[C@H](NC(=O)c1cc(-c2cc(F)cc(F)c2)cc2ccn(Cc3ccc(-c4ccc(F)cc4)cc3)c12)c1ccc(C(=O)O)cc1 [Example 214, (S)-4-(1-(5-(3,5-difluorophenyl)-1-((4′-fluoro-[1,1′-biphenyl]-4-yl)methyl)-1H-indole-7-carboxamido)ethyl)benzoic acid]
19 | < 100 nM | C[C@H](NC(=O)c1cc(-c2ccc(F)c(F)c2)cc2ccn(Cc3ccc(-c4ccc(F)cc4)cc3)c12)c1ccc(C(=O)O)cc1 [Example 215, (S)-4-(1-(5-(3,4-difluorophenyl)-1-((4′-fluoro-[1,1′-biphenyl]-4-yl)methyl)-1H-indole-7-carboxamido)ethyl)benzoic acid]
20 | < 100 nM | O=C(O)c1ccc(CNC(=O)c2cc(-c3ccc(F)c(F)c3)cc3ccn(Cc4ccc5ccccc5c4)c23)cc1 [Example 216, 4-((5-(3,4-difluorophenyl)-1-(naphthalen-2-ylmethyl)-1H-indole-7-carboxamido)methyl)benzoic acid]
21 | < 100 nM | C[C@H](NC(=O)c1cc(-c2ccc(F)c(F)c2)cc2ccn(Cc3ccc4ccccc4c3)c12)c1ccc(C(=O)O)cc1 [Example 217, (S)-4-(1-(5-(3,4-difluorophenyl)-1-(naphthalen-2-ylmethyl)-1H-indole-7-carboxamido)ethyl)benzoic acid]
22 | < 100 nM | O=C(O)c1ccc(CNC(=O)c2cc(-c3ccc(F)c(F)c3)cc3cnn(Cc4ccc5ccccc5c4)c23)cc1 [Example 218, 4-((5-(3,4-difluorophenyl)-1-(naphthalen-2-ylmethyl)-1H-indazole-7-carboxamido)methyl)benzoic acid]
23 | < 100 nM | C[C@H](NC(=O)c1cc(-c2ccc(F)c(F)c2)cc2cnn(Cc3ccc4ccccc4c3)c12)c1ccc(C(=O)O)cc1 [Example 219, (S)-4-(1-(5-(3,4-difluorophenyl)-1-(naphthalen-2-ylmethyl)-1H-indazole-7-carboxamido)ethyl)benzoic acid]
24 | < 100 nM | C[C@H](NC(=O)c1cc(-c2ccc(F)c(F)c2)cc2cnn(Cc3cccc(C(F)(F)F)c3)c12)c1ccc(C(=O)O)cc1 [Example 220, (S)-4-(1-(5-(3,4-difluorophenyl)-1-(3-(trifluoromethyl)benzyl)-1H-indazole-7-carboxamido)ethyl)benzoic acid]

Row | Molecule | IC50
25 | ((5-(3-cyano-5-fluorophenyl)-1-(4-(trifluoromethyl)benzyl)-1H-indole-7-carboxamido)methyl)benzoic acid [Example 77] | < 100 nM
